In patent US11434234B2, “Methods and agents for treating disease” (ANGION BIOMEDICA CORP., priority 2014, dated 2022):

Experiments:
aldosterone synthase = biological target: T1, aldosterone synthase (Homo sapiens, UniProt P19099); test: Ang-II stimulated aldosterone production in H295R cells (ELISA); type: cell-based
T1 construct: host or cells: H295R human adrenocortical carcinoma cells
T1 sequence (P19099 25-503): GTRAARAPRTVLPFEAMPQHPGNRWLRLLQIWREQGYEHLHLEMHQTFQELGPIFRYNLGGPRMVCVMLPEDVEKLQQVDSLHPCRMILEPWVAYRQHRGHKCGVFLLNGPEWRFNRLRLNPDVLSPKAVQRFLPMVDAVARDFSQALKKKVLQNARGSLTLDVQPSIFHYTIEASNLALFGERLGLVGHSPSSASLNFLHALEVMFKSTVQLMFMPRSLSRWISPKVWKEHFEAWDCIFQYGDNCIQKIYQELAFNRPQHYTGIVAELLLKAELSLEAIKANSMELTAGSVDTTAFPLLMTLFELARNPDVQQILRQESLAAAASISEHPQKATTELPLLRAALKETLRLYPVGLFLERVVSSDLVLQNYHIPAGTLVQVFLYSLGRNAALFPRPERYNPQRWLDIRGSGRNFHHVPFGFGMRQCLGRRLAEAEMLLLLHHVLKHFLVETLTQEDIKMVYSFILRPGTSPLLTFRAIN
Protocol: To test the activity of compounds in a cell-based assay, a well-established assay described in the literature was used [Muller-Vieira U, Angotti M, Hartmann R W. The adrenocortical tumor cell line NCI-H295R as an in vitro screening system for the evaluation of CYP11B2 (aldosterone synthase) and CYP11B1 (steroid-11beta-hydroxylase) inhibitors. […] In brief, human adrenocortical carcinoma cells (H295R; ATCC CRL-2128) were plated in 96-well plates and the effect of compounds on angiotensin-II (Ang-II) stimulated aldosterone production was determined in the supernatant using an ELISA kit (Genway 40-521-475012). […] Compounds were tested in the aldosterone production assay at various concentrations and from dose-response inhibition curves the % inhibition at specific concentrations and the IC50 were calculated.

human CYP11B2 = biological target: T2, human CYP11B2 (Homo sapiens, UniProt P19099); test: Aldosterone inhibitory activity in V79 cells expressing human CYP11B2; type: cell-based; conditions: V79 Chinese hamster cells stably transfected with human CYP11B2; substrate 11-deoxycorticosterone 100 nM; read-out: IC50, inhibition of the production of aldosterone
T2 construct: expressed in transfected cells; host or cells: V79 Chinese hamster cells
T2 sequence (P19099 25-503): T1 sequence (P19099 25-503)
Protocol: For the determination of aldosterone inhibitory activity, tests were carried out using V79 Chinese hamster cells stably transfected with human CYP11B2 or CYP11B1 and using assay protocols as described in Ehmer P B, Bureik M, Bernhardt R, Muller U, Hartmann R W. Development of a test system for inhibitors of human aldosterone synthase (CYP11B2): screening in fission yeast and evaluation of selectivity in V79 cells. J. Steroid Biochem. Mol. Biol. 2002 June; 81(2):173-9. The concentration of the substrate 11-deoxycorticosterone in the assay was 100 nM.

## CC(=O)N1CCN(c2ccc(OCC3COC(Cn4ccnc4)(c4ccc(Cl)cc4Cl)O3)cc2)CC1 (centres unmarked) [ketoconazole]
Aldosterone synthase
  Ang-II stimulated aldosterone production: significantly inhibited
  basal aldosterone production: significantly inhibited

## CCOC(=O)c1cncn1[C@H](C)c1ccccc1 [etomidate]
Aldosterone synthase
  Ang-II stimulated aldosterone production: significantly inhibited
  basal aldosterone production: significantly inhibited

## CCCC(O)(c1nc2ccc(Br)cc2s1)c1cnccc1C(C)C (centres unmarked) [Example 37, 1-(6-bromobenzo[d]thiazol-2-yl)-1-(4-isopropylpyridin-3-yl)butan-1-ol]
Human CYP11B2
  IC50: < 1000 nM

## CCCC(O)(c1nc2ccc(OC(F)(F)F)cc2s1)c1cnccc1OCC (centres unmarked) [Example 46, 1-(4-ethoxypyridin-3-yl)-1-(6-(trifluoromethoxy)benzo[d]thiazol-2-yl)butan-1-ol]
Human CYP11B2
  IC50: < 1000 nM

## CCCC(O)(c1cncc(OC)c1)c1nc2ccc(F)cc2s1 (centres unmarked) [Example 20, 1-(6-fluorobenzo[d]thiazol-2-yl)-1-(5-methoxypyridin-3-yl)butan-1-ol]
Human CYP11B2
  IC50: < 1000 nM

## CCCC(O)(c1nc2cccc(C(F)(F)F)c2s1)c1cnccc1OCC (centres unmarked) [Example 47, 1-(4-ethoxypyridin-3-yl)-1-(7-(trifluoromethyl)benzo[d]thiazol-2-yl)butan-1-ol]
Human CYP11B2
  IC50: < 1000 nM

## CCCC(O)(c1nc2ccc(C#N)cc2s1)c1cnccc1OCC (centres unmarked) [Example 72, 1-(6-cyanobenzo[d]thiazol-2-yl)-1-(4-ethoxypyridin-3-yl)butan-1-ol]
Human CYP11B2
  IC50: < 1000 nM

## CCCC(O)(c1nc2ccc(OC(F)(F)F)c(C)c2s1)c1cnccc1OCC (centres unmarked) [Example 61, 1-(4-ethoxypyridin-3-yl)-1-(7-methyl-6-(trifluoromethoxy)benzo[d]thiazol-2-yl)butan-1-ol]
Human CYP11B2
  IC50: < 1000 nM

## CCCC(O)(c1nc2ccc([N+](=O)[O-])cc2s1)c1cnccc1OC (centres unmarked) [Example 28, 1-(4-methoxypyridin-3-yl)-1-(6-nitrobenzo[d]thiazol-2-yl)butan-1-ol]
Human CYP11B2
  IC50: < 1000 nM
